Laboratory results taken from PubChem BioAssay (NCI).
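Results reflect a 48-hour exposure of cells in 96-well plates to compound at five concentrations. At the TGI there is no net growth.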

Columns and labels:
Assay in all cases: NCI-60 cell line screen, 48 h
[1] = tested on: HOP-92 NSCLC
[2] = tested on: OVCAR-3 ovarian
[3] = tested on: CAKI-1 renal
[4] = tested on: OVCAR-4 ovarian
[5] = tested on: OVCAR-5 ovarian
[6] = tested on: SK-MEL-28 melanoma
[7] = tested on: IGROV1 ovarian
[8] = tested on: T-47D breast
[9] = tested on: SNB-19 CNS
[10] = tested on: A549 NSCLC
[11] = tested on: HCC-2998 colon
[12] = tested on: SN12C renal
[13] = tested on: RPMI-8226 leukemia
[14] = tested on: SF-295 CNS
[15] = tested on: TK-10 renal
[16] = tested on: PC-3 prostate
[17] = tested on: SK-OV-3 ovarian
[18] = tested on: HT29 colon
[19] = tested on: MDA-MB-231 breast
[20] = tested on: U251 CNS
[21] = tested on: HCT-116 colon
[22] = tested on: RXF 393 renal
[23] = tested on: SF-539 CNS
[24] = tested on: BT-549 breast
[25] = tested on: UACC-62 melanoma
[26] = tested on: NCI/ADR-RES ovarian
[27] = tested on: NCI-H23 lung
[28] = tested on: HOP-62 NSCLC
[29] = tested on: DU-145 prostate
[30] = tested on: 786-0 renal
[31] = tested on: SK-MEL-2 melanoma
[32] = tested on: HCT-15 colon
[33] = tested on: MALME-3M melanoma
[34] = tested on: UO-31 renal
[35] = tested on: ACHN renal
[36] = tested on: SF-268 CNS
[37] = tested on: UACC-257 melanoma
[38] = tested on: SW-620 colon
[39] = tested on: HS 578T breast
[40] = tested on: K-562 leukemia
[41] = tested on: SR leukemia
[42] = tested on: NCI-H460 lung
[43] = tested on: MOLT-4 leukemia
[44] = tested on: SNB-75 CNS
[45] = tested on: HL-60(TB) leukemia
[46] = tested on: MCF7 breast
[47] = tested on: LOX IMVI melanoma
[48] = tested on: M14 melanoma
[49] = tested on: MDA-N
[50] = tested on: CCRF-CEM leukemia
[51] = tested on: SK-MEL-5 melanoma
[52] = tested on: KM12 colon
[53] = tested on: MDA-MB-435
[54] = tested on: A498 renal
[55] = tested on: NCI-H226 lung
[56] = tested on: EKVX NSCLC
[57] = tested on: NCI-H522 lung
[58] = tested on: OVCAR-8 ovarian
[59] = tested on: COLO 205 colon

Measured: TGI

CCOC(=O)c1c(-c2ccc(OC)cc2)c(C#N)c(=S)n(C2OC(COC(C)=O)C(OC(C)=O)C(OC(C)=O)C2OC(C)=O)c1-c1ccccc1 (stereo unspecified)
> 100 µM: [1] | [2] | [3] | [4] | [5] | [6] | [7] | [8] | [9] | [10] | [11] | [12] | [13] | [14] | [15] | [16] | [17] | [18] | [19] | [20] | [21] | [22] | [23] | [24] | [25] | [26] | [27] | [28] | [29] | [30] | [31] | [32] | [33] | [34] | [35] | [36] | [37] | [38] | [39] | [40] | [41] | [42] | [43] | [44] | [45] | [46] | [47] | [48] | [49] | [50] | [51] | [52] | [53]

NC(=Nc1c([N+](=O)[O-])cnc2ccccc12)N1CCOCC1
> 100 µM: [2] | [3] | [4] | [5] | [6] | [7] | [54] | [8] | [9] | [55] | [10] | [56] | [12] | [13] | [14] | [15] | [16] | [17] | [18] | [19] | [20] | [21] | [23] | [24] | [25] | [26] | [27] | [28] | [29] | [30] | [31] | [32] | [34] | [35] | [36] | [57] | [38] | [39] | [40] | [58] | [41] | [42] | [43] | [44] | [45] | [46] | [59] | [47] | [48] | [49] | [50] | [51] | [52] | [53]

CC(=O)O[C@H]1C[C@H]2[C@@H](OC(C)=O)/C=C3\C[C@](C)(C(=O)[C@H](O)C(=C1C)C2(C)C)[C@@H](O)C[C@@H]3OC(=O)[C@H](O)[C@H](c1ccccc1)N(C)C
> 100 µM: [1] | [2] | [3] | [4] | [5] | [6] | [7] | [54] | [8] | [9] | [55] | [10] | [56] | [12] | [13] | [14] | [15] | [16] | [17] | [19] | [20] | [21] | [22] | [23] | [24] | [25] | [26] | [27] | [28] | [29] | [30] | [32] | [33] | [34] | [35] | [36] | [37] | [57] | [38] | [39] | [40] | [58] | [41] | [42] | [43] | [44] | [45] | [46] | [59] | [47] | [48] | [49] | [50] | [51] | [52] | [53]

N=C1/C(=C/c2ccc(F)cc2)C(=O)N=C2SC=NN12
> 100 µM: [1] | [2] | [3] | [4] | [5] | [6] | [7] | [8] | [9] | [55] | [10] | [56] | [11] | [12] | [13] | [14] | [15] | [16] | [17] | [18] | [19] | [20] | [21] | [22] | [23] | [24] | [25] | [26] | [27] | [28] | [29] | [30] | [31] | [32] | [33] | [34] | [35] | [36] | [37] | [57] | [38] | [39] | [40] | [58] | [41] | [42] | [43] | [44] | [45] | [46] | [59] | [47] | [48] | [49] | [50] | [51] | [52] | [53]
